Assay results published in ChEMBL document CHEMBL1201861, “Genomics of Drug Sensitity in Cancer screening data, Wellcome Trust Sanger Institute”.

Legend:
Test in all cases: cells
Conditions in all cases: Homo sapiens
RS4-11 = format: functional, cell-based;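 note: growth inhibition of RS4-11 cells, read out by a cell viability assay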
Description: SANGER: Inhibition of human RS4-11 cell growth in a cell viability assay.

ETK-1 = format: functional, cell-based;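 note: growth inhibition of human ETK-1 cells, read out with a cell viability assay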
Description: SANGER: Inhibition of human ETK-1 cell growth in a cell viability assay.

NCI-H1304 = format: functional, cell-based;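 note: growth inhibition of the cancer cell line, measured in a cell viability assay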
Description: SANGER: Inhibition of human NCI-H1304 cell growth in a cell viability assay.

MFM-223 = format: functional, cell-based
Description: SANGER: Inhibition of human MFM-223 cell growth in a cell viability assay.

NOMO-1 = format: functional, cell-based;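 note: growth inhibition of human NOMO-1 cells measured by a cell viability assay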
Description: SANGER: Inhibition of human NOMO-1 cell growth in a cell viability assay.

Ramos-2G6-4C10 = format: functional, cell-based;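 note: growth inhibition of the cell line, measured by a cell viability read-out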
Description: SANGER: Inhibition of human Ramos-2G6-4C10 cell growth in a cell viability assay.

HCE-T = format: functional, cell-based;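 note: cell viability assay read-out, reporting inhibition of HCE-T cell growth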
Description: SANGER: Inhibition of human HCE-T cell growth in a cell viability assay.

KNS-81-FD = format: functional, cell-based;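 note: growth inhibition of KNS-81-FD cells, read out with a cell viability assay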
Description: SANGER: Inhibition of human KNS-81-FD cell growth in a cell viability assay.

SF-539 = format: functional, cell-based;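 note: Read-out is a cell viability assay, with IC50 reflecting inhibition of cell growth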
Description: SANGER: Inhibition of human SF539 cell growth in a cell viability assay.

U-87 MG = format: functional, cell-based, U-87MG ATCC;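 note: growth inhibition of the cells measured with a viability assay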
Description: SANGER: Inhibition of human U-87-MG cell growth in a cell viability assay.

KARPAS-45 = format: functional, cell-based;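 note: inhibition of cell line growth, read out through a viability assay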
Description: SANGER: Inhibition of human KARPAS-45 cell growth in a cell viability assay.

LB2241-RCC = format: functional, cell-based;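 note: cell viability assay measuring how strongly the cultured human renal carcinoma line is prevented from growing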
Description: SANGER: Inhibition of human LB2241-RCC cell growth in a cell viability assay.

ML-2 = format: functional, cell-based;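 note: growth inhibition of ML-2 cells, measured with a cell viability readout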
Description: SANGER: Inhibition of human ML-2 cell growth in a cell viability assay.

NEC8 = format: functional, cell-based;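 note: growth inhibition of human NEC8 cells, read out by a cell viability assay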
Description: SANGER: Inhibition of human NEC8 cell growth in a cell viability assay.

OCI-AML2 = format: functional, cell-based;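 note: growth inhibition of OCI-AML2 cells, read out with a cell viability assay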
Description: SANGER: Inhibition of human OCI-AML2 cell growth in a cell viability assay.

KMOE-2 = format: functional, cell-based;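 note: growth inhibition of human KMOE-2 cells, read out with a cell viability assay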
Description: SANGER: Inhibition of human KMOE-2 cell growth in a cell viability assay.

MZ2-MEL = format: functional, cell-based;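 note: growth inhibition of MZ2-MEL cells read out with a cell viability assay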
Description: SANGER: Inhibition of human MZ2-MEL cell growth in a cell viability assay.

HT-144 = format: functional, cell-based
Description: SANGER: Inhibition of human HT-144 cell growth in a cell viability assay.

NCI-H1395 = format: functional, cell-based;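 note: cell viability assay read-out quantifying reduced proliferation of human NCI-H1395 cells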
Description: SANGER: Inhibition of human NCI-H1395 cell growth in a cell viability assay.

HD-MY-Z = format: functional, cell-based;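 note: growth inhibition of HD-MY-Z cells, read out with a cell viability assay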
Description: SANGER: Inhibition of human HD-MY-Z cell growth in a cell viability assay.

P30-OHK = format: functional, cell-based;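 note: growth inhibition of the P30-OHK cell line, read out with a cell viability assay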
Description: SANGER: Inhibition of human P30-OHK cell growth in a cell viability assay.

TE-6 = format: functional, cell-based;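 note: growth inhibition of TE-6 cells, read out with a cell viability assay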
Description: SANGER: Inhibition of human TE-6 cell growth in a cell viability assay.

CAS-1 = format: functional, cell-based;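 note: growth inhibition of CAS-1 cells, measured with a cell viability assay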
Description: SANGER: Inhibition of human CAS-1 cell growth in a cell viability assay.

NCI-H1155 = format: functional, cell-based;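 note: cell growth inhibition measured by a viability assay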
Description: SANGER: Inhibition of human NCI-H1155 cell growth in a cell viability assay.

LS-123 = format: functional, cell-based
Description: SANGER: Inhibition of human LS-123 cell growth in a cell viability assay.

GB-1 = format: functional, cell-based;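 note: growth of GB-1 cells judged by a viability assay, IC50 marks the concentration inhibiting growth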
Description: SANGER: Inhibition of human GB-1 cell growth in a cell viability assay.

EW-13 = format: functional, cell-based;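 note: growth inhibition of EW-13 cells, read out with a cell viability assay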
Description: SANGER: Inhibition of human EW-13 cell growth in a cell viability assay.

QIMR-WIL = format: functional, cell-based;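 note: growth inhibition of QIMR-WIL cells, read out with a cell viability assay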
Description: SANGER: Inhibition of human QIMR-WIL cell growth in a cell viability assay.

SK-N-FI = format: functional, cell-based;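 note: cell viability assay measuring growth inhibition of human SK-N-FI cells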
Description: SANGER: Inhibition of human SK-N-FI cell growth in a cell viability assay.

TE-9 = format: functional, cell-based;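 note: cell growth inhibition, measured with a cell viability readout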
Description: SANGER: Inhibition of human TE-9 cell growth in a cell viability assay.

MOLT-4 = format: functional, cell-based;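 note: growth inhibition of MOLT-4 cells, determined with a cell viability readout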
Description: SANGER: Inhibition of human MOLT-4 cell growth in a cell viability assay.

ES5 = format: functional, cell-based;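 note: growth inhibition of human ES5 cells, read out by a cell viability assay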
Description: SANGER: Inhibition of human ES5 cell growth in a cell viability assay.

SNB-75 = format: functional, cell-based;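 note: cell viability assay measuring growth inhibition of human SNB-75 cells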
Description: SANGER: Inhibition of human SNB75 cell growth in a cell viability assay.

UACC-257 = format: functional, cell-based
Description: SANGER: Inhibition of human UACC-257 cell growth in a cell viability assay.

REH = format: functional, cell-based;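 note: growth inhibition of REH cells determined with a cell viability read-out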
Description: SANGER: Inhibition of human REH cell growth in a cell viability assay.

KM12 = format: functional, cell-based;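 note: KM12 cell growth inhibition, read out with a cell viability assay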
Description: SANGER: Inhibition of human KM12 cell growth in a cell viability assay.

CTV-1 = format: functional, cell-based;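 note: growth inhibition of the cell line, read out with a cell viability assay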
Description: SANGER: Inhibition of human CTV-1 cell growth in a cell viability assay.

CA46 = format: functional, cell-based;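 note: growth inhibition of human CA46 cells, read out by a cell viability assay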
Description: SANGER: Inhibition of human CA46 cell growth in a cell viability assay.

EOL1 = format: functional, cell-based;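 note: growth inhibition of EoL-1 cells, read out by a cell viability assay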
Description: SANGER: Inhibition of human EoL-1-cell cell growth in a cell viability assay.

SNU-5 = format: functional, cell-based;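 note: cell viability readout used to measure growth inhibition in human NCI-SNU-5 cells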
Description: SANGER: Inhibition of human NCI-SNU-5 cell growth in a cell viability assay.

DMS-79 = format: functional, cell-based;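 note: growth inhibition measured with a cell viability assay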
Description: SANGER: Inhibition of human DMS-79 cell growth in a cell viability assay.

RKO = format: functional, cell-based;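 note: growth inhibition of human RKO cells, read out with a cell viability assay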
Description: SANGER: Inhibition of human RKO cell growth in a cell viability assay.

SK-LMS-1 = format: functional, cell-based;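 note: growth inhibition of human SK-LMS-1 cells, read out with a cell viability assay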
Description: SANGER: Inhibition of human SK-LMS-1 cell growth in a cell viability assay.

KG-1 = format: functional, cell-based;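 note: growth inhibition of KG-1 cells, read out by a cell viability assay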
Description: SANGER: Inhibition of human KG-1 cell growth in a cell viability assay.

SH-4 = format: functional, cell-based;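 note: growth inhibition of SH-4 cells, read out with a cell viability assay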
Description: SANGER: Inhibition of human SH-4 cell growth in a cell viability assay.

DB = format: functional, cell-based
Description: SANGER: Inhibition of human DB cell growth in a cell viability assay.

OS-RC-2 = format: functional, cell-based;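 note: growth inhibition of human OS-RC-2 cells, measured by a cell viability assay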
Description: SANGER: Inhibition of human OS-RC-2 cell growth in a cell viability assay.

HH = format: functional, cell-based
Description: SANGER: Inhibition of human HH cell growth in a cell viability assay.

GR-ST = format: functional, cell-based
Description: SANGER: Inhibition of human GR-ST cell growth in a cell viability assay.

LOUCY = format: functional, cell-based;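 note: growth inhibition of human LOUCY cells, read out with a cell viability assay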
Description: SANGER: Inhibition of human LOUCY cell growth in a cell viability assay.

IST-SL1 = format: functional, cell-based;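 note: growth inhibition of human IST-SL1 cells, read out with a cell viability assay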
Description: SANGER: Inhibition of human IST-SL1 cell growth in a cell viability assay.

KU812 cell line = format: functional, cell-based;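 note: growth inhibition of KU812 cells, read out with a cell viability assay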
Description: SANGER: Inhibition of human KU812 cell growth in a cell viability assay.

SCC-15 = format: functional, cell-based;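 note: growth inhibition of SCC-15 cells, read out with a cell viability assay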
Description: SANGER: Inhibition of human SCC-15 cell growth in a cell viability assay.

SW 954 = format: functional, cell-based;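 note: growth inhibition of SW954 human cancer cells, read out as cell viability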
Description: SANGER: Inhibition of human SW954 cell growth in a cell viability assay.

DOHH-2 = format: functional, cell-based;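 note: growth inhibition of human DOHH-2 cells, read out with a cell viability assay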
Description: SANGER: Inhibition of human DOHH-2 cell growth in a cell viability assay.

LB2518-MEL = format: functional, cell-based;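 note: growth inhibition of human LB2518-MEL cells, measured with a cell viability assay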
Description: SANGER: Inhibition of human LB2518-MEL cell growth in a cell viability assay.

Cc1ccc(NC(=O)c2cccc(C(C)(C)C#N)c2)cc1Nc1ccc2ncn(C)c(=O)c2c1
IC50 (RS4-11): > 4 µM | IC50 (ETK-1): > 4 µM | IC50 (NCI-H1304): > 4 µM | IC50 (MFM-223): > 4 µM | IC50 (NOMO-1): 1.21 µM | IC50 (Ramos-2G6-4C10): > 4 µM | IC50 (HCE-T): > 4 µM | IC50 (KNS-81-FD): > 4 µM | IC50 (SF-539): > 4 µM | IC50 (U-87 MG): > 4 µM | IC50 (KARPAS-45): > 4 µM | IC50 (LB2241-RCC): > 4 µM | IC50 (ML-2): 0.369 µM | IC50 (NEC8): > 4 µM | IC50 (OCI-AML2): 0.017 µM | IC50 (KMOE-2): 0.116 µM | IC50 (MZ2-MEL): 0.794 µM | IC50 (HT-144): 0.00661 µM | IC50 (NCI-H1395): > 4 µM | IC50 (HD-MY-Z): 2.94 µM | IC50 (P30-OHK): > 4 µM | IC50 (TE-6): > 4 µM | IC50 (CAS-1): > 4 µM | IC50 (NCI-H1155): > 4 µM | IC50 (LS-123): > 4 µM | IC50 (GB-1): > 4 µM | IC50 (EW-13): > 4 µM | IC50 (QIMR-WIL): 3.23 µM | IC50 (SK-N-FI): > 4 µM | IC50 (TE-9): > 4 µM | IC50 (MOLT-4): > 4 µM | IC50 (ES5): > 4 µM | IC50 (SNB-75): > 4 µM | IC50 (UACC-257): 0.0275 µM | IC50 (REH): > 4 µM | IC50 (KM12): 2.08 µM | IC50 (CTV-1): 1.2 µM | IC50 (CA46): > 4 µM | IC50 (EOL1): > 4 µM | IC50 (SNU-5): 2.81 µM | IC50 (DMS-79): > 4 µM | IC50 (RKO): 0.0377 µM | IC50 (SK-LMS-1): > 4 µM | IC50 (KG-1): 3.81 µM | IC50 (SH-4): < 0.0156 µM | IC50 (DB): > 4 µM | IC50 (OS-RC-2): > 4 µM | IC50 (HH): > 4 µM | IC50 (GR-ST): > 4 µM | IC50 (LOUCY): > 4 µM | IC50 (IST-SL1): > 4 µM | IC50 (KU812 cell line): > 4 µM | IC50 (SCC-15): > 4 µM | IC50 (SW 954): > 4 µM | IC50 (DOHH-2): 1.99 µM | IC50 (LB2518-MEL): 0.00476 µM
